For data set [1], the system named is H929 tumors. Briefly: H929 xenograft tumor model (tumors 150±20 mm^3). The note with it: 28 days. It counts as in vivo, NOD-SCID mice.
Description: (§3) To generate subcutaneous tumors, 2×10^7 H929 cells in PBS were mixed with 50% (v/v) extracellular matrix gel and injected subcutaneously into the flanks of NOD-SCID mice. Tumor size and body weight were recorded every 2-3 days. Volumes of subcutaneously xenografted tumors in vivo were determined using an external caliper, where tumor volume was calculated by the modified ellipsoid formula, ½×(length×width×width). […] At the end of experiments, tumors were collected and weighed. Statistical analysis was performed with Student t test and statistical differences between groups were analyzed by one-way ANOVA with Bonferroni's multiple comparison post-tests.
Data set [2] is described as follows: HPLC analysis after 5-day incubation in PBS or RPMI medium without cells. Format: physicochemical. Conditions: 1 μM in PBS, 37° C., 5 days. The method, then:
The total run time was 45 minutes.
(Panels (A) and (D) of FIG. 8B).

Data set [3] has as its system U266-CD38- cells. The data set is described as follows: alamarBlue cell viability assay, U266-CD38- cells. Format: cell-based. Conditions: 5 days, FIG. 12F. The protocol:
(§1) Briefly, H929, U266-CD38^−, MM.1S, and Daudi cells were seeded at 5,000 cells/well in 96-well plates and co-cultured with fresh medium containing different test articles with the indicated concentrations at 37° C. for 5 hours, 1 day, 3 days, or 5 days. The viabilities of the cells were determined by alamarBlue™ cell viability reagent. About 10 μl alamarBlue™ cell viability reagent was added to the cells with a final concentration of 10% v/v, followed by incubating at 37° C. for 1.5 hours. The fluorescence was measured on a microplate reader in arbitrary fluorescent units following excitation at 560 nm and emission at 590 nm.
(§2) H929 cells were incubated for 5 hours, 1 day, 3 days, or 5 days (FIGS. 12A-12D), and MM.1S, U266-CD38-, and Daudi cells were incubated for 5 days (FIGS. 12E-12G). Then, cell viability was determined.
On the technique in general: The colour change of resazurin is a common sign of viable cells or microbes.

In data set [4] the test system is H929 cells. Briefly: alamarBlue cell viability assay, H929 cells. Format: cell-based, human. The protocol: as §1, §2
Data set [5] has as its system MM.1S cells. The data set is described as follows: alamarBlue cell viability assay, MM.1S cells. Format: cell-based, human. The method, then:
as §1, §2

The test system of data set [6] is H929 tumors. Briefly: H929 xenograft tumor model, pilot study (tumors 115±15 mm^3). Conditions: single dose 20 nmol/kg i.p. 7 days post-transplantation, measured for 21 days.
Description: as §3
The tumors from all mice were excised and weighed on day 21 post drug administration.

As to `Nc1cccc2c1CN(C1CCC(=O)NC1=O)C2=O` (stereo not shown) [lenalidomide], in data set [1] (daily i.p. injections), the “tumor growth compared to PBS” value was “inhibited tumor growth”. For the same compound, the “HPLC peaks after long-term incubation (hydrolysis)” value in data set [2] was “two additional peaks (p2 and p1) respectively corresponding to its two hydrolyzed forms”. Besides, the killing effect result in data set [3] is “some killing effect at high concentrations”. Also, the cell killing entry in data set [4] (at doses >10 μM) and in data set [5] (at doses >10 μM) was “only weak killing” each time.
For daratumumab, in data set [1] (single dose 20 nmol/kg on day 14 after transplantation), the “tumor growth compared to PBS” value is listed as “inhibited tumor growth”. For the same compound, in data set [3], the killing effect result is “did not possess any killing effect”. Further, the “effect of cell death” value in data set [4] (even at doses >20 μM) and in data set [5] (even at doses >20 μM) was “no effect of cell death” each time. Also, the “change of tumor sizes compared to PBS” value in data set [6] is “could only slow down tumor growth”.

The record behind these values is patent US20240342298A1, “METHODS OF TREATING TUMORS BY USING MOLECULAR CONSTRUCT” (Immunwork Inc., priority 2023, published 2024).
